Test results published in patent publication US6806286B2, “Pyrrolecarboxamides and pyrrolethioamides as fungicides” (Syngenta Crop Protection, Inc., priority 2000, dated 2004).

Experiments:
Etysiphe graminis = assay: Action against Etysiphe graminis/barley (powdery mildew on barley); format: in vivo; conditions: barley plants cv. Express, spray 0.02% active ingredient, inoculated one day after application, assessed after 6 days incubation
Protocol: Action Against Etysiphe graminis/barley (Powdery Mildew on Barley)
1 week old barley plants cv. […] One day after application barley plants are inoculated by shaking powdery mildew infected plants above the test plants. After an incubation period of 6 days at 20° C./18° C. (day/night) and 60% r. h. in a greenhouse the disease incidence is assessed.

Botryis cinerea = assay: Action against Botryis cinerea/apple (Botrytis on apple fruits); format: in vivo, B. cinerea; conditions: apple fruit cv. Golden Delicious, 30 μl droplets 0.002% active ingredient in drilled holes, inoculated two hours after application, assessed after 7 days
Protocol: Action Against Botryis cinerea/apple (Botrytis on Apple Fruits)
In an apple fruit cv. […] Two hours after application 50 μl of a spore suspension of B. cinerea (4×10^5 conidia/ml) are pipetted on the application sites. After an incubation period of 7 days at 22° C. in a growth chamber the disease incidence is assessed.

Puenophora teres = assay: Action against Puenophora teres/barley (net blotch on barley); format: in vivo; conditions: barley plants cv. Express, spray 0.002% active ingredient, inoculated two days after application, assessed 4 days after inoculation
Protocol: Action Against Puenophora teres/barley (Net Blotch on Barley)
1 week old barley plants cv. […] Two days after application barley plants are inoculated by spraying a spore suspension (3×10^4 conidia/ml) on the test plants. After an incubation period of 2 days at 20° C. and 95% r. h. plants are kept for 2 days at 20° C. and 60% r.h. in a greenhouse. The disease incidence is assessed 4 days after inoculation.

Venturia Inaequalis = assay: Action against Venturia inaequalis/apple (scab on apple); format: in vivo; conditions: apple seedlings cv. McIntosh, spray 0.02% active ingredient, inoculated one day after application, assessed after 4+4+4 days incubation
Protocol: Action Against Venturia Inaequalis/apple (Scab on Apple)
4 week old apple seedlings cv. […] One day after application apple plants are inoculated by spraying a spore suspension (4×10^5 conidia/ml) on the test plants. After an incubation period of 4 days at 21° C. and 95% r. h. the plants are placed for 4 days at 21° C. and 60% r. h. in a greenhouse. After another 4 day incubation period at 21° C. and 95% r. h. the disease incidence is assessed.

Podosphaera leucotricha = assay: Action against Podosphaera leucotricha/apple (powdery mildew on apple); format: in vivo; conditions: apple seedlings cv. McIntosh, spray 0.002% active ingredient, inoculated one day after application, assessed after 12 days incubation
Protocol: Action Against Podosphaera leucotricha/apple (Powdery Mildew on Apple)
5 week old apple seedlings cv. […] One day after application apple plants are inoculated by shaking plants infected with apple powdery mildew above the test plants. After an incubation period of 12 days at 22° C. and 60% r. h. under a light regime of 14/10 h (light/dark) the disease incidence is assessed.

Septoria nodorum = assay: Action against Septoria nodorum/wheat (Septoria leaf spot on wheat); format: in vivo; conditions: wheat plants cv. Arina, spray 0.02% active ingredient, inoculated one day after application, assessed 11 days after inoculation
Protocol: Action Against Septoria nodorum/wheat (Septoria Leaf Spot on Wheat)
1 week old wheat plants cv. […] One day after application wheat plants are inoculated by spraying a spore suspension (5×10^5 conidia/ml) on the test plants. After an incubation period of 1 day at 20° C. and 95% r. h. plants are kept for 10 days at 20° C. and 60% r.h. in a greenhouse. The disease incidence is assessed 11 days after inoculation.

Botryts cinerea = assay: Action against Botryts cinerea/tomato (Botrytis on tomatoes); format: in vivo; conditions: tomato plants cv. Roter Gnom, spray 0.002% active ingredient, inoculated two days after application, assessed after 4 days incubation
Protocol: Action Against Botryts cinerea/tomato (Botrytis on Tomatoes)
4 week old tomato plants cv. […] Two days after application tomato plants are inoculated by spraying a spore suspension (1×10^5 conidia/ml) on the test plants. After an incubation period of 4 days at 20° C. and 95% r. h. in a growth chamber the disease incidence is assessed.

Boftis cinerea = assay: Action against Boftis cinerea/grape (Botrytis on grapes); format: in vivo; conditions: grape seedlings cv. Gutedel, spray 0.002% active ingredient, inoculated two days after application, assessed after 4 days incubation
Protocol: Action Against Boftis cinerea/grape (Botrytis on Grapes)
5 week old grape seedlings cv. […] Two days after application grape plants are inoculated by spraying a spore suspension (1×10^6 conidia/ml) on the test plants. After an incubation period of 4 days at 21° C. and 95% r. h. in a greenhouse the disease incidence is assessed.

Measured: efficacy (disease incidence)

CC1CC(C)(C)c2cccc(NC(=O)c3cn(C)cc3C(F)(F)C(F)(F)F)c21 (racemic) [Compound 10.5]
strong efficacy: all assays above

Cc1cn(C)cc1C(=O)Nc1ccccc1C1=CCCCC1 [Compound 1.5]
strong efficacy: all assays above

Cc1cn(C)cc1C(=O)Nc1ccccc1C1CCCCC1 [Compound 1.9]
strong efficacy: all assays above

Cc1cn(C)cc1C(=O)Nc1ccccc1-c1ccc(Cl)cc1 [Compound 1.23]
strong efficacy: all assays above

Cc1cn(C)cc1C(=O)Nc1ccccc1-c1ccncc1F [Compound 1.46]
strong efficacy: all assays above

Cn1cc(C(=O)Nc2ccccc2-c2ccc(Cl)cc2)c(C(F)F)c1 [Compound 1.144]
strong efficacy: all assays above

Cn1cc(C(=O)Nc2ccccc2C2=CCCCC2)c(C(F)(F)C(F)(F)F)c1 [Compound 1.183]
strong efficacy: all assays above

Cn1cc(C(=O)Nc2ccccc2C2CCCCC2)c(C(F)(F)C(F)(F)F)c1 [Compound 1.187]
strong efficacy: all assays above

Cn1cc(C(=O)Nc2ccccc2-c2ccc(Cl)cc2)c(C(F)(F)C(F)(F)F)c1 [Compound 1.190]
strong efficacy: all assays above

Cn1cc(C(=O)Nc2ccccc2-c2ccc(F)cc2)c(C(F)(F)C(F)(F)F)c1 [Compound 1.192]
strong efficacy: all assays above

Cn1cc(C(=O)Nc2ccccc2C2CCCCC2)c(C2CC2)c1 [Compound 1.206]
strong efficacy: all assays above

Cn1cc(C(=O)Nc2ccccc2-c2ccncc2F)c(C2CC2)c1 [Compound 1.244]
strong efficacy: all assays above
